Test results from US20230128194A1, “METHODS AND COMPOSITIONS TO ALTER HEPATIC GABA RELEASE TO TREAT OBESITY-RELATED CONDITIONS” (ARIZONA BOARD OF REGENTS ON BEHALF OF THE UNIVERSITY OF …, priority 2017, published 2023).

Tests used:
diet-induced obese mice [1] = experiment: EOS in drinking water (3 g/L) in obese mice: glucose homeostasis, body mass; format: in vivo, mouse
Method: In a separate set of studies, an ITT was performed in obese mice to establish insulin resistance. Subsequently, EOS was provided ad libitum in the water (3 g/L) for 4 days. An OGTT and ITT were performed on days 3 and 4 of treatment, respectively. The water was then removed, and an ITT was performed 2 weeks later to establish the timing of restoration of insulin resistance after drug removal.
(§1) Oral glucose (2.5 g/kg; 0.1 mL/10 g body weight; Chem-Impex Int'l Inc., Wood Dale, Ill.) was given to 4 hour fasted individually housed mice. All glucose tolerance tests began at […] and glucose was measured in whole blood, collected from the tail vein, by glucometer (Manufacture #D2ASCCONKIT, Bayer, Leverkusen, Germany) at 0, 15, 30, 60, 90, and 120 minutes after glucose gavage. Blood for serum insulin (oral glucose stimulated insulin secretion; OGSIS) and glucose determination was collected from the tail vein 15 minutes following glucose administration.
(§2) Intraperitoneal insulin (0.5 U/kg; 0.1 mL/10 g body weight; Sigma Aldrich, St. Louis, Mo.) was given to 4 hour fasted individually housed mice. All insulin tolerance tests began at […] and glucose was measured in whole blood, collected from the tail vein, by glucometer (Manufacture #D2ASCCONKIT, Bayer, Leverkusen, Germany) at 0, 30, 60, 90, and 120 minutes after insulin injection.

[2] = tested on: high fat diet-induced obese mice; experiment: muscle cGMP content (ELISA); format: in vivo, mouse; conditions: day 5
Method: On the fifth day of EOS or PBS treatment, mice were sacrificed and the quadricep and soleus tissues were collected and frozen on dry ice. Prior to analysis, frozen quadricep were powdered using a liquid nitrogen cooled mortar and pestle to obtain homogenous muscle samples. 15-20 mg of quadricep and the entire soleus tissue (6-12 mg) were homogenized in 200 μL of a 5% trichloroacetic acid solution. Following 15 minutes of centrifugation at 3,000×g at 4° C., supernatant was transferred to a fresh tube for analysis of muscle cGMP by enzyme-linked immunosorbent assay (ELISA; ADI-900-164, Enzo Life Sciences, Farmingdale, N.Y.).

lean mice = experiment: GABA-T inhibitors (8 mg/day oral gavage) in lean mice: glucose homeostasis; format: in vivo, mouse
Method: All animal studies were conducted using male wildtype C57BL/6J mice purchased from Jackson Laboratories or bred in-house (Bar Harbor, Me.). Mice were kept on a 14-hour light/10-hour dark schedule and housed 3-5 mice per cage until 1 week prior to study initiation, at which point animals were individually housed. Studies were conducted in lean chow fed mice (7013 NIH-31, Teklad WI, 3.1 kcal/g, 18% kcal from fat, 59% kcal from carbohydrate, 23% kcal from protein) at 12-16 weeks of age. Studies in diet-induced obese mice dosed intraperitoneally with GABA transaminase inhibitors, mice treated with ethanolamine-O-sulfate in their drinking water, and mice treated with GABA-T targeted or scramble control antisense oligonucleotides (ASO) were performed after 8-10 weeks on a high fat diet (TD 06414, Teklad WI, 5.1 kcal/g, 60.3% kcal from fat, 21.3% kcal from carbohydrate, 18.4% kcal from protein; 20-26 weeks of age). For ASO studies, mice were stratified by body weight and assigned to an injection treatment (control or GABA-T). Studies in obese vagotomy and sham mice were performed after 9 weeks of high fat diet feeding. Unless fasted, mice had ad libitum access to food and water. All studies were approved by The University of Arizona Institutional Animal Care and Use Committee.
(§3) Wildtype lean and obese mice were randomly divided into treatment groups and dosed daily with 8 mg of ethanolamine-O-sulfate (EOS; Sigma-Aldrich, St. Louis, Mo.), vigabatrin (United States Pharmacopeia, Rockville, Md.) or PBS. Obese sham and vagotomy mice were dosed daily with 8 mg of EOS. In all cases, basal bleeds were taken prior to initiation of an ITT. Lean mice received treatment by oral gavage (0.3 mL/mouse) while obese mice were treated by intraperitoneal injection (0.3 mL/mouse). Pre-treatment studies were conducted in the week immediately prior to beginning drug administration. Daily doses took place at 9 am each day and oral glucose tolerance tests (OGTT) and insulin tolerance tests (ITT) were performed on the third and fourth days of treatment in lean mice, respectively. In wildtype obese mice, OGTT and ITT were performed on the fourth day of treatment in separate cohorts. On the fifth day of treatment, 2DG clearance studies were performed. In sham/vagotomy mice, OGTT and ITT were performed on the fourth and fifth day of treatment, respectively. After a 2-week washout period without treatment injection, a basal bleed and bleed 15 minutes after an oral glucose gavage ([…]) to determine oral glucose stimulated insulin secretion were performed.
as §1, §2
Within 2 hours of collection, blood was left to clot at room temperature for 20 minutes. Thereafter, the blood was centrifuged at 3,000×g for 30 minutes at 4° C. and serum was collected. Serum was stored at −80° C. until metabolite and hormone analyses. A colorimetric assay was used to analyze serum glucose (Cat. #G7519, Pointe Scientific Inc., Canton Mich.). Serum insulin was analyzed by enzyme-linked immunosorbent assay (ELISA; Cat. #80-INSMSU-E01,E10, Alpco, Salem, N.H.). […]

[3] = tested on: obese hepatic vagotomized and sham operated mice; experiment: EOS (8 mg/day) in HFD-induced obese sham operated and hepatic vagotomized mice; format: in vivo, mouse
Method: Surgeries were performed in 12-week old male C57BL/6J mice under isoflurane anesthesia. Mice were randomly assigned to a surgical group (sham or vagotomy). A ventral midline incision through the skin and peritoneum allowed us to isolate the hepatic vagus nerve as it branched from the esophagus. In vagotomized mice, the hepatic vagal nerve was severed, while it remained intact in sham operated mice. The peritoneum was sutured with absorbable polyglactin 910 suture and the skin with nylon suture. Mice were given a single post-operative dose of slow release formulated buprenorphine analgesic (1.2 mg/kg slow release, sub-cutaneous). Food intake and body weight were monitored daily and sutures were removed 7 days post-operation.
as §3, §1, §2

diet-induced obese mice [4] = experiment: body composition by EchoMRI in EOS treated mice; format: in vivo, mouse; conditions: 3 g/L in drinking water, day 7 vs day 0
Method: Body composition was assessed in diet-induced obese mice on day 0 and 7 days after continuous provision of EOS in the drinking water (3 g/L) using an EchoMRI 900 with A10 insert for mice. Calibration was performed daily and had the water stage set to on.

GABA-T = target: T1, GABA-T (Mus musculus, UniProt P61922); experiment: liver slice GABA export with GABA-T inhibitor ex vivo; format: cell-based; conditions: 5.3 mM
T1 construct: from tissue; host or cells: liver slices of lean, obese and obese Kir2.1-expressing mice
T1 sequence (P61922 29-500): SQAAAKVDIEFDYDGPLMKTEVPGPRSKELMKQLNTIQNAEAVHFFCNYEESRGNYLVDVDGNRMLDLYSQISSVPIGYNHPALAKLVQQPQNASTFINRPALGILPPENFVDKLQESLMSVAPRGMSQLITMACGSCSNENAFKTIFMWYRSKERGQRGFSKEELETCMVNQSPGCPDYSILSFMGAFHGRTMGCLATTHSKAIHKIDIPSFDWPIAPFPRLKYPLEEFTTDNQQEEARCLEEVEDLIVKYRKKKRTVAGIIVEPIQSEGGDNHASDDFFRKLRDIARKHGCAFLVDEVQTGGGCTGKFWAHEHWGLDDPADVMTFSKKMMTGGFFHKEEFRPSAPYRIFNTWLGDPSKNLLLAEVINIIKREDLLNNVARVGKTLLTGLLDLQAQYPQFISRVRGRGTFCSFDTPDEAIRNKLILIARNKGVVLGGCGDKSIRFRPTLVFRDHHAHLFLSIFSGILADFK
Description: Two liver slices were taken from each mouse.

SMILES: NCCOS(=O)(=O)O [EOS, ethanolamine-O-sulfate]
- response after withdrawal (diet-induced obese mice [1]; 2 weeks without EOS in the drinking water): washed out
- body mass (diet-induced obese mice [1]; diet-induced obese mice, 3 g/L in drinking water, 7 weeks): dramatically decreased
- measures of glucose homeostasis (diet-induced obese mice [1]; obese mice, 3 g/L in drinking water, 4 days): similarly improved
- cGMP in quad [2]: no effect
- increase of cGMP in the soleus [2]: 59%
- serum glucose (lean mice): decreased
- glucose tolerance (lean mice; 8 mg/day): no effect
- insulin sensitivity (lean mice; 8 mg/day): no effect
- serum insulin concentrations (lean mice; 8 mg/day): no effect
- glucose homeostasis (lean mice; acute): does not alter
- responses to EOS in vagotomized mice ([3]; hepatic vagotomized obese mice): eliminated most of the responses
- serum glucose ([3]; hepatic vagotomized obese mice): decrease
- glucose stimulated serum insulin ([3]; sham operated obese mice): diminished
- glucose:insulin ratio ([3]; sham operated obese mice): elevated
- insulin sensitivity by insulin tolerance test ([3]; sham operated obese mice): tended to improve
- oral glucose tolerance ([3]; sham operated obese mice): improved
- serum glucose ([3]; sham operated obese mice): decreased
- serum insulin ([3]; sham operated obese mice): decreased
- all parameters after washout ([3]; sham operated obese mice, 2-week washout): restored all parameters to pre-treatment measures
- body weight between surgical groups ([3]; sham vs vagotomized, during EOS treatment): did not differ
- decrease of fat mass (diet-induced obese mice [4]): 16.27%
- decrease of lean mass (diet-induced obese mice [4]): 6.15%
- decrease of total body mass (diet-induced obese mice [4]): 10%
- GABA export (GABA-T; obese Kir2.1 expressing liver slices): decreased
- GABA export (GABA-T; obese control liver slices): decreased
